Laboratory results: US12441725B2, “ISO-citrate dehydrogenase (IDH) inhibitor” (ZHEJIANG METON PHARMACEUTICAL CO., LTD, priority 2019, dated 2025)

What was measured:
IDH1 R132H = biological target: T1, IDH1 R132H (Homo sapiens, UniProt O75874, R132H); test: Biochemical assay for IDH inhibition (NADPH fluorescence), mutant IDH1 R132H; settings: 50 nM IDH1-R132H, 1 hour pre-incubation, in triplet
T1 construct: 6xHis
In short: (§1)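 Mutant enzyme (25 nM R132C or 50 nM R132H) was preincubated 1 h at room temperature with compound in pH 7.5 Tris buffer containing 1.33 mM α-KG, and the reaction was then started with NADPH (80 μM solution). NADPH consumption was followed by fluorescence (Ex 340/Em 460 nm) for 15 min. IC50 was derived from background-corrected linear rates relative to vehicle, run in triplicate.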

IDH1 R132C = biological target: T2, IDH1 R132C (Homo sapiens, UniProt O75874, R132C); test: Biochemical assay for IDH inhibition (NADPH fluorescence), mutant IDH1 R132C; settings: 25 nM IDH1-R132C, 1 hour pre-incubation, in triplet
T2 construct: 6xHis
In short: as §1

[1] = biological target: T3, IDH (endogenous IDH1 R132C) in HT1080 cell (Homo sapiens, UniProt O75874, R132C); test: Cell-based assay for IDH inhibition (decrease of D-2-HG) in HT1080 cells; settings: human fibrosarcoma cell line HT1080, 16 hours treatment, D-2-HG by LC-MS, in triplet
T3 construct: which harbor endogenous heterozygous IDH1 R132C and R132H mutation respectively and accumulate D-2-HG
In short: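 HT1080 cells with endogenous IDH1 R132C, grown in DMEM/10% FBS, treated with compound at several concentrations for 16 h. Metabolites extracted in cold 40% methanol/40% acetonitrile and D-2-HG measured by HILIC LC-MS/MS, normalized to glutamate. IC50 from D-2-HG relative to DMSO controls; run in triplicate.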

T3 sequence (O75874 2-414 R132C): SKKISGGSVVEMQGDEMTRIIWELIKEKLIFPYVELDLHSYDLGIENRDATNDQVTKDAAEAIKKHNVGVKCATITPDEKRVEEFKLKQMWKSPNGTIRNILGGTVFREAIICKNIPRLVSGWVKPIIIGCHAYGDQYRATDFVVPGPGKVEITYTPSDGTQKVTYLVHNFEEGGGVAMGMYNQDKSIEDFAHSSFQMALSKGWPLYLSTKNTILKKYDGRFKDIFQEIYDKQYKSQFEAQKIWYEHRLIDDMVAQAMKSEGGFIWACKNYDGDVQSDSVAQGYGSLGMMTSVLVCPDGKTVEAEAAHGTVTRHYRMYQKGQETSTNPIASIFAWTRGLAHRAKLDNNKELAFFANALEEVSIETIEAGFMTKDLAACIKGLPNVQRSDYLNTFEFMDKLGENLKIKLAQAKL
T2 sequence (O75874 whole entry R132C): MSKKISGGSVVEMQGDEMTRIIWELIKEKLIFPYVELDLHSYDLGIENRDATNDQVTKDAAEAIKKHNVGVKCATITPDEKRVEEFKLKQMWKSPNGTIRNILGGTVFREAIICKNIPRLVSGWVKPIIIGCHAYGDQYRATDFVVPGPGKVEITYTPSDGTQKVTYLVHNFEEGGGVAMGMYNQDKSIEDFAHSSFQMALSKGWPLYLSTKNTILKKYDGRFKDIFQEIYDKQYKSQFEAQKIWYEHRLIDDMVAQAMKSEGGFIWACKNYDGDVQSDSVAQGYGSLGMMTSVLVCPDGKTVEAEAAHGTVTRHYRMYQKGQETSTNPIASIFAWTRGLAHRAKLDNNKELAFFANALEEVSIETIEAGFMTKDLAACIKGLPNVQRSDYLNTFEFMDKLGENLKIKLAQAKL
T1 sequence (O75874 whole entry R132H): as the sequence (O75874 whole entry R132C) above, with C132H counted along it

| Structure (SMILES) | IC50 (IDH1 R132H) | IC50 (IDH1 R132C) | IC50 [1] |
| --- | --- | --- | --- |
| CCN1Cc2c(ccnc2N[C@H](C)c2ccc(Oc3ccccc3)c(F)c2)C1=O [Compound 12, (R)-2-ethyl-4-((1-(3-fluoro-4-phenoxyphenyl)ethyl)amino)-2,3-dihydro-1H-pyrrolo[3,4-c]pyridin-1-one] | > 1000 nM | > 1000 nM | > 1000 nM |
| CCN1Cc2c(ccnc2N[C@@H](C)c2cc(F)c(-c3cc(OC(C)(C)C)ncc3C)cc2F)C1=O [Compound 151, (S)-4-((1-(4-(2-(tert-butoxy)-5-methylpyridin-4-yl)-2,5-difluorophenyl)ethyl)amino)-2-ethyl-2,3-dihydro-1H-pyrrolo[3,4-c]pyridin-1-one] | < 100 nM | 100 to 500 nM | < 100 nM |
| CCN1Cc2c(ccnc2N[C@@H](C)c2cc3cc(Cl)ccc3[nH]c2=O)C1=O [Compound 64, (S)-6-chloro-3-(1-((2-ethyl-1-oxo-2,3-dihydro-1H-pyrrolo[3,4-c]pyridin-4-yl)amino)ethyl)quinolin-2(1H)-one] | 100 to 500 nM | > 1000 nM | > 1000 nM |
| CCN1Cc2c(ccnc2N[C@@H](C)c2cc(F)c(Oc3ccc4c(ccn4C)c3)cc2F)C1=O [Compound 21, (S)-4-((1-(2,5-difluoro-4-((1-methyl-1H-indol-5-yl)oxy)phenyl)ethyl)amino)-2-ethyl-2,3-dihydro-1H-pyrrolo[3,4-c]pyridin-1-one] | < 100 nM | 100 to 500 nM | > 1000 nM |
| CCN1Cc2c(ccnc2N[C@@H](C)c2cnc(-c3cc(C(C)(C)C)ccn3)c(F)c2)C1=O [Compound 44, (S)-4-((1-(4′-(tert-butyl)-3-fluoro-[2,2′-bipyridin]-5-yl)ethyl)amino)-2-ethyl-2,3-dihydro-1H-pyrrolo[3,4-c]pyridin-1-one] | > 1000 nM | > 1000 nM | 500 to 1000 nM |
| CCN1Cc2c(ccnc2N[C@@H](C)c2ccc(Cc3ccc(F)c(C)c3)c(F)c2)C1=O [Compound 51, (S)-2-ethyl-4-((1-(3-fluoro-4-(4-fluoro-3-methylbenzyl)phenyl)ethyl)amino)-2,3-dihydro-1H-pyrrolo[3,4-c]pyridin-1-one] | 100 to 500 nM | 100 to 500 nM | > 1000 nM |
| CCN1Cc2c(ccnc2N[C@@H](C)c2cc(F)c(O[C@@H]3C[C@@H](C)CC(C)(C)C3)cc2F)C1=O [Compound 23, 4-(((S)-1-(2,5-difluoro-4-(((1R,5S)-3,3,5-trimethylcyclohexyl)oxy)phenyl)ethyl)amino)-2-ethyl-2,3-dihydro-1H-pyrrolo[3,4-c]pyridin-1-one] | < 100 nM | < 100 nM | < 100 nM |
| CCN1Cc2c(N[C@@H](C)c3ccc(OC4CCCC4)c(F)c3)ncc(F)c2C1=O [Compound 19, (S)-4-((1-(4-(cyclopentyloxy)-3-fluorophenyl)ethyl)amino)-2-ethyl-7-fluoro-2,3-dihydro-1H-pyrrolo[3,4-c]pyridin-1-one] | > 1000 nM | > 1000 nM | > 1000 nM |
| CCN1Cc2c(ccnc2N[C@@H](C)c2ccc(-c3ccnc(C(F)(F)F)c3)c(F)c2)C1=O [Compound 34, (S)-2-ethyl-4-((1-(3-fluoro-4-(2-(trifluoromethyl)pyridin-4-yl)phenyl)ethyl)amino)-2,3-dihydro-1H-pyrrolo[3,4-c]pyridin-1-one] | > 1000 nM | > 1000 nM | > 1000 nM |
| CCN1Cc2c(ccnc2N[C@@H](C)c2ccc(Oc3cccc4c3ccn4C)c(F)c2)C1=O [Compound 2, (S)-2-ethyl-4-((1-(3-fluoro-4-((1-methyl-1H-indol-4-yl)oxy)phenyl)ethyl)amino)-2,3-dihydro-1H-pyrrolo[3,4-c]pyridin-1-one] | 100 to 500 nM | 100 to 500 nM | 500 to 1000 nM |
| CCN1Cc2c(ccnc2N[C@@H](C)c2ccc(OC3CCC(F)(F)C3)c(F)c2)C1=O (stereo partly drawn) [Compound 27, 4-(((1S)-1-(4-((3,3-difluorocyclopentyl)oxy)-3-fluorophenyl)ethyl)amino)-2-ethyl-2,3-dihydro-1H-pyrrolo[3,4-c]pyridin-1-one] | > 1000 nM | > 1000 nM | > 1000 nM |

Continued, values first:

| IC50 (IDH1 R132H) | IC50 (IDH1 R132C) | IC50 [1] | Structure (SMILES) |
| --- | --- | --- | --- |
| > 1000 nM | > 1000 nM | 500 to 1000 nM | CCN1Cc2c(ccnc2N[C@@H](C)c2cc(F)c(-c3cc(C#N)ccn3)cc2F)C1=O [Compound 114, (S)-2-(4-(1-((2-ethyl-1-oxo-2,3-dihydro-1H-pyrrolo[3,4-c]pyridin-4-yl)amino)ethyl)-2,5-difluorophenyl)isonicotinonitrile] |
| < 100 nM | < 100 nM | 100 to 500 nM | CCN1Cc2c(ccnc2N[C@@H](C)c2cc(F)c(-c3cc(C(F)(F)F)cc(CF)n3)cc2F)C1=O [Compound 123, (S)-4-((1-(2,5-difluoro-4-(6-(fluoromethyl)-4-(trifluoromethyl)pyridin-2-yl)phenyl)ethyl)amino)-2-ethyl-2,3-dihydro-1H-pyrrolo[3,4-c]pyridin-1-one] |
| < 100 nM | < 100 nM | < 100 nM | CCN1Cc2c(ccnc2N[C@@H](C)c2cc(F)c(-c3cc(C(C)(C)C)c(OC)cn3)cc2F)C1=O [Compound 150, (S)-4-((1-(4-(4-(tert-butyl)-5-methoxypyridin-2-yl)-2,5-difluorophenyl)ethyl)amino)-2-ethyl-2,3-dihydro-1H-pyrrolo[3,4-c]pyridin-1-one] |
| > 1000 nM | > 1000 nM | 500 to 1000 nM | CCN1Cc2c(ccnc2N[C@@H](C)c2cc(F)c(-c3ccnc(Cl)c3)cc2F)C1=O [Compound 95, (S)-4-((1-(4-(2-chloropyridin-4-yl)-2,5-difluorophenyl)ethyl)amino)-2-ethyl-2,3-dihydro-1H-pyrrolo[3,4-c]pyridin-1-one] |
| < 100 nM | < 100 nM | < 100 nM | CCN1Cc2c(ccnc2N[C@@H](C)c2cc(F)c(-c3cc(C(C)(C)F)c(F)cn3)cc2F)C1=O [Compound 137, (S)-4-((1-(2,5-difluoro-4-(5-fluoro-4-(2-fluoropropan-2-yl)pyridin-2-yl)phenyl)ethyl)amino)-2-ethyl-2,3-dihydro-1H-pyrrolo[3,4-c]pyridin-1-one] |
| 100 to 500 nM | 100 to 500 nM | 100 to 500 nM | CCN1Cc2c(ccnc2N[C@@H](C)c2cc(F)c(-c3ccnc(C(C)(F)F)c3)cc2F)C1=O [Compound 106, (S)-4-((1-(4-(2-(1,1-difluoroethyl)pyridin-4-yl)-2,5-difluorophenyl)ethyl)amino)-2-ethyl-2,3-dihydro-1H-pyrrolo[3,4-c]pyridin-1-one] |
| < 100 nM | 100 to 500 nM | < 100 nM | CCN1Cc2c(ccnc2N[C@@H](C)c2cc(F)c(-c3cc(C(C)(C)F)c(C#N)cn3)cc2F)C1=O [Compound 163, (S)-6-(4-(1-((2-ethyl-1-oxo-2,3-dihydro-1H-pyrrolo[3,4-c]pyridin-4-yl)amino)ethyl)-2,5-difluorophenyl)-4-(2-fluoropropan-2-yl)nicotinonitrile] |
| < 100 nM | < 100 nM | < 100 nM | CCN1Cc2c(ccnc2N[C@@H](C)c2cc(F)c(-c3cc(C(C)(C)F)c(OC)nn3)cc2F)C1=O [Compound 153, (S)-4-((1-(2,5-difluoro-4-(5-(2-fluoropropan-2-yl)-6-methoxypyridazin-3-yl)phenyl)ethyl)amino)-2-ethyl-2,3-dihydro-1H-pyrrolo[3,4-c]pyridin-1-one] |
| 100 to 500 nM | > 1000 nM | > 1000 nM | COCCN1Cc2c(ccnc2N[C@@H](C)c2cc(F)c(-c3ccnc(C(C)(C)C)c3)cc2F)C1=O [Compound 158, (S)-4-((1-(4-(2-(tert-butyl)pyridin-4-yl)-2,5-difluorophenyl)ethyl)amino)-2-(2-methoxyethyl)-2,3-dihydro-1H-pyrrolo[3,4-c]pyridin-1-one] |
| < 100 nM | < 100 nM | < 100 nM | CCN1Cc2c(ccnc2N[C@@H](C)c2cc(F)c(-c3cc(C(C)(C)F)cc(F)n3)cc2F)C1=O [Compound 119, (S)-4-((1-(2,5-difluoro-4-(6-fluoro-4-(2-fluoropropan-2-yl)pyridin-2-yl)phenyl)ethyl)amino)-2-ethyl-2,3-dihydro-1H-pyrrolo[3,4-c]pyridin-1-one] |
| < 100 nM | < 100 nM | 100 to 500 nM | CCN1Cc2c(ccnc2N[C@@H](C)c2cc(F)c(-c3cc(C(C)(C)F)ncc3OC)cc2F)C1=O [Compound 132, (S)-4-((1-(2,5-difluoro-4-(2-(2-fluoropropan-2-yl)-5-methoxypyridin-4-yl)phenyl)ethyl)amino)-2-ethyl-2,3-dihydro-1H-pyrrolo[3,4-c]pyridin-1-one] |
| 100 to 500 nM | 500 to 1000 nM | > 1000 nM | CCN1Cc2c(ccnc2N[C@@H](C)c2ccc(-c3ccc(F)c(C)c3)c(F)c2)C1=O [Compound 81, (S)-4-((1-(2,4′-difluoro-3′-methyl-[1,1′-biphenyl]-4-yl)ethyl)amino)-2-ethyl-2,3-dihydro-1H-pyrrolo[3,4-c]pyridin-1-one] |
| < 100 nM | < 100 nM | < 100 nM | CCN1Cc2c(ccnc2N[C@@H](C)c2cc(F)c(-c3cc(C4(C(F)(F)F)CC4)ccn3)cc2F)C1=O [Compound 124, (S)-4-((1-(2,5-difluoro-4-(4-(1-(trifluoromethyl)cyclopropyl)pyridin-2-yl)phenyl)ethyl)amino)-2-ethyl-2,3-dihydro-1H-pyrrolo[3,4-c]pyridin-1-one] |
